Test results: US10294202B2, “Pyrrolidinones as herbicides” (FMC Corporation, priority 2013, dated 2019)

What was measured:
giant foxtail = assay: Test A pre-/postemergence herbicide test; type: in vivo, Setaria faberii; details: for Foxtail, Giant plant response rating: Preemergence, visual rating on 0 to 100 scale (0 no effect, 100 complete control)
Procedure, shortened: (§1)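 Both application timings used compounds in a non-phytotoxic solvent plus surfactant. Pre-emergence: soil sprayed directly after seeding into loam/sand. Post-emergence: foliage of 2–10 cm seedlings (1–2 leaves) sprayed. Injury rated ~10 days later, 0–100.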

corn = assay: Test A pre-/postemergence herbicide test; type: in vivo, Zea mays; details: for Corn plant response rating: Preemergence, visual rating on 0 to 100 scale (0 no effect, 100 complete control)
Procedure, shortened: as §1

rice = assay: Test B flooded paddy test; type: in vivo, Oryza sativa; details: 250 g ai/ha, Flood; scale of 0 to 100 where 0 is no effect and 100 is complete control
Procedure, shortened: (§2)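 Plants grown to 2-leaf stage; pots flooded 3 cm above soil and compound applied directly into paddy water, depth held throughout. Visual rating against untreated controls after 13 to 15 days in greenhouse, 0 (no effect) to 100 (complete control).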

sedge, umbrella = assay: Test B flooded paddy test; type: in vivo, Cyperus difformis; details: 250 g ai/ha, Flood; scale of 0 to 100 where 0 is no effect and 100 is complete control
Procedure, shortened: as §2

ducksalad = assay: Test B flooded paddy test; type: in vivo, Heteranthera limosa; details: 250 g ai/ha, Flood; scale of 0 to 100 where 0 is no effect and 100 is complete control
Procedure, shortened: as §2

wheat (winter wheat) = assay: Test C pre-/postemergence herbicide test; type: in vivo, Triticum aestivum; details: Preemergence
From the text: (§3) Seeds of plant species selected from blackgrass (Alopecurus myosuroides), ryegrass, Italian (Italian ryegrass, Lolium multiflorum), wheat (winter wheat, Triticum aestivum), galium (catchweed bedstraw, Galium aparine), corn (Zea mays), crabgrass, large (large crabgrass, Digitaria sanguinalis), foxtail, giant (giant foxtail, Setaria faberii), johnsongrass (Sorghum halepense), lambsquarters (Chenopodium album), morningglory (Ipomoea coccinea), nutsedge, yellow (yellow nutsedge, Cyperus esculentus), pigweed (Amaranthus retroflexus), ragweed (common ragweed, Ambrosia elatior), soybean (Glycine max), barnyardgrass (Echinochloa crus-galli), oilseed rape (Brassica napus), waterhemp (common waterhemp, Amaranthus rudis), kochia (Kochia scoparia), oat, wild (wild oat, Avena fatua), surinam grass (Brachiaria decumbens), foxtail, green (green foxtail, Setaria viridis), goosegrass (Eleusine indica), bromegrass, downy (downy bromegrass, Bromus tectorum), nightshade (eastern black nightshade, Solanum ptycanthum), cocklebur (common cocklebur, Xanthium strumarium), cupgrass, woolly (woolly cupgrass, Eriochloa villosa), bermudagrass (Cynodon dactylon), sunflower, (common oilseed sunflower, Helianthus annuus), Russian thistle (Salsola kali) and velvetleaf (Abutilon theophrasti) were planted into a blend of loam soil and sand and treated preemergence with test chemicals formulated in a non-phytotoxic solvent mixture which included a surfactant. At the same time, plants selected from these crop and weed species and also barley (winter barley, Hordeum vulgare), […]), chickweed (common chickweed, Stellaria media), deadnettle (henbit deadnettle, Lamium amplexicaule), and canarygrass (littleseed canarygrass, Phalaris minor) were planted in pots containing Redi-Earth® planting medium (Scotts Company, 14111 Scottslawn Road, Marysville, Ohio 43041) comprising spaghnum peat moss, vermiculite, wetting agent and starter nutrients and treated with postemergence applications of test chemicals formulated in the same manner. Plants ranged in height from 2 to 18 cm (1- to 4-leaf stage) for postemergence treatments. Treated plants and controls were maintained in a greenhouse for 13 to 15 days, after which time all species were compared to controls and visually evaluated. Plant response ratings, summarized in Table C, are based on a scale of 0 to 100 where 0 is no effect and 100 is complete control. A dash (-) response means no test result.

crabgrass, large = assay: Test C pre-/postemergence herbicide test; type: in vivo, Digitaria sanguinalis; details: Preemergence
From the text: as §3

johnsongrass = assay: Test C pre-/postemergence herbicide test; type: in vivo, Sorghum halepense; details: Preemergence
From the text: as §3

lambsquarters = assay: Test C pre-/postemergence herbicide test; type: in vivo, Chenopodium album; details: Preemergence
From the text: as §3

pigweed = assay: Test C pre-/postemergence herbicide test; type: in vivo, Amaranthus retroflexus; details: Preemergence
From the text: as §3

[1] = Postemergence, 125 g ai/ha, 0 to 100 scale, 0 no effect, 100 complete control
[2] = Postemergence, 500 g ai/ha, 0 to 100 scale (0 no effect, 100 complete control)
[3] = preemergence, 500 g ai/ha, 0 to 100 scale
[4] = 31 g ai/ha, scale 0 to 100, 0 is no effect and 100 is complete control
[5] = 125 g ai/ha, scale 0 to 100 (0 no effect, 100 complete control)
[6] = Postemergence, 125 g ai/ha, 0 to 100 scale, 0 is no effect, 100 is complete control

O=C1NCC(c2ccc(F)c(F)c2)C1C(=O)Nc1ccccc1C(F)(F)F (racemic) [Compound 6]
Plant response rating, Foxtail, Giant (giant foxtail; [1]): 70
Plant response rating, Foxtail, Giant (giant foxtail; [2]): 80
Foxtail, Giant plant response rating (giant foxtail; 125 g ai/ha): 90
Plant response rating, Foxtail, Giant (giant foxtail; [3]): 90
Plant response rating, Corn (corn; [1]): 0
Plant response rating, Corn (corn; [2]): 0
Corn plant response rating (corn; 125 g ai/ha): 0
Plant response rating, Corn (corn; [3]): 0

O=C1NCC(c2ccc(F)c(C(F)(F)F)c2)C1C(=O)Nc1cccc(F)c1F (racemic) [Compound 77]
Plant response rating, Foxtail, Giant (giant foxtail; [1]): 80
Plant response rating, Foxtail, Giant (giant foxtail; [2]): 80
Foxtail, Giant plant response rating (giant foxtail; 125 g ai/ha): 90
Plant response rating, Foxtail, Giant (giant foxtail; [3]): 90
Plant response rating, Corn (corn; [1]): 50
Plant response rating, Corn (corn; [2]): 70
Corn plant response rating (corn; 125 g ai/ha): 0
Plant response rating, Corn (corn; [3]): 30
Plant response rating, Rice (rice): 10
Plant response rating, Sedge, Umbrella (sedge, umbrella): 0
Plant response rating, Ducksalad (ducksalad): 100
Wheat plant response rating (wheat (winter wheat); [4]): 0
Plant response rating, Wheat (wheat (winter wheat); 62 g ai/ha, scale 0 to 100): 55
Plant response rating, Wheat (wheat (winter wheat); [5]): 80
Plant response rating (scale of 0 to 100), Wheat (wheat (winter wheat); 250 g ai/ha): 90
Crabgrass, Large plant response rating (crabgrass, large; [4]): 95
Plant response rating, Crabgrass, Large (crabgrass, large; 62 g ai/ha, scale 0 to 100): 95
Plant response rating, Crabgrass, Large (crabgrass, large; [5]): 98
Plant response rating (scale of 0 to 100), Crabgrass, Large (crabgrass, large; 250 g ai/ha): 98
Johnsongrass plant response rating (johnsongrass; [4]): 20
Plant response rating, Johnsongrass (johnsongrass; 62 g ai/ha, scale 0 to 100): 55
Plant response rating, Johnsongrass (johnsongrass; [5]): 75
Plant response rating (scale of 0 to 100), Johnsongrass (johnsongrass; 250 g ai/ha): 90
Lambsquarters plant response rating (lambsquarters; [4]): 75
Plant response rating, Lambsquarters (lambsquarters; 62 g ai/ha, scale 0 to 100): 85
Plant response rating, Lambsquarters (lambsquarters; [5]): 85
Plant response rating (scale of 0 to 100), Lambsquarters (lambsquarters; 250 g ai/ha): 98
Pigweed plant response rating (pigweed; [4]): 0
Plant response rating, Pigweed (pigweed; 62 g ai/ha, scale 0 to 100): 60
Plant response rating, Pigweed (pigweed; [5]): 60
Plant response rating (scale of 0 to 100), Pigweed (pigweed; 250 g ai/ha): 85

O=C1NCC(c2cccc(C(F)F)c2)C1C(=O)Nc1ccccc1F (racemic) [Compound 210]
Plant response rating, Foxtail, Giant (giant foxtail; 125 g ai/ha, visual rating, 0 to 100 scale, 0 no effect, 100 complete control, approximately 10 days, preemergence): 80
Plant response rating, Foxtail, Giant (giant foxtail; [6]): 50
Foxtail, Giant plant response rating (0 to 100 scale, 0 is no effect, 100 is complete control) (giant foxtail; Postemergence, 500 g ai/ha): 90
Plant response rating, Foxtail, Giant (giant foxtail; preemergence, 500 g ai/ha, 0 to 100 scale, 0 is no effect and 100 is complete control): 90
Plant response rating, Corn (corn; [6]): 0
Corn plant response rating (0 to 100 scale, 0 is no effect, 100 is complete control) (corn; Postemergence, 500 g ai/ha): 60
